Results taken from patent publication US20240208992A1, “MACROCYCLES AS CFTR MODULATORS” (Idorsia Pharmaceuticals Ltd, priority 2021, published 2024).

Biological target: human F508del-CFTR (Homo sapiens, UniProt P13569, DEL508-508)
Assay: F508del-CFTR cell surface expression (corrector activity), DiscoveRx ß-galactosidase complementation chemiluminescence assay in recombinant U2OS cell line;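 note: U2OS cells co-expressing ProLink-tagged F508del-CFTR and a membrane-anchored enzyme acceptor, where more surface CFTR restores β-galactosidase activity measured by chemiluminescence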
Settings: for EC50: EC50, F508del-CFTR cell surface expression; for Emax: U2OS
[1] = U2OS cells, 16h compound incubation, geomean values
[2] = in relation to Emax of corrector lumacaftor (=100%), arithmetic mean values
[3] = U2OS cell line, 16h compound incubation, geomean values
[4] = in relation to the Emax of the corrector lumacaftor (=100%), U2OS cell line, 16h compound incubation, arithmetic mean values
[5] = U2OS cells, 16h compound incubation, geomean of several measurements
[6] = in relation to the Emax of the corrector lumacaftor (=100%), U2OS cells, 16h compound incubation, arithmetic mean

Sequence of human F508del-CFTR (P13569 with tags, fused parts or gaps DEL508-508): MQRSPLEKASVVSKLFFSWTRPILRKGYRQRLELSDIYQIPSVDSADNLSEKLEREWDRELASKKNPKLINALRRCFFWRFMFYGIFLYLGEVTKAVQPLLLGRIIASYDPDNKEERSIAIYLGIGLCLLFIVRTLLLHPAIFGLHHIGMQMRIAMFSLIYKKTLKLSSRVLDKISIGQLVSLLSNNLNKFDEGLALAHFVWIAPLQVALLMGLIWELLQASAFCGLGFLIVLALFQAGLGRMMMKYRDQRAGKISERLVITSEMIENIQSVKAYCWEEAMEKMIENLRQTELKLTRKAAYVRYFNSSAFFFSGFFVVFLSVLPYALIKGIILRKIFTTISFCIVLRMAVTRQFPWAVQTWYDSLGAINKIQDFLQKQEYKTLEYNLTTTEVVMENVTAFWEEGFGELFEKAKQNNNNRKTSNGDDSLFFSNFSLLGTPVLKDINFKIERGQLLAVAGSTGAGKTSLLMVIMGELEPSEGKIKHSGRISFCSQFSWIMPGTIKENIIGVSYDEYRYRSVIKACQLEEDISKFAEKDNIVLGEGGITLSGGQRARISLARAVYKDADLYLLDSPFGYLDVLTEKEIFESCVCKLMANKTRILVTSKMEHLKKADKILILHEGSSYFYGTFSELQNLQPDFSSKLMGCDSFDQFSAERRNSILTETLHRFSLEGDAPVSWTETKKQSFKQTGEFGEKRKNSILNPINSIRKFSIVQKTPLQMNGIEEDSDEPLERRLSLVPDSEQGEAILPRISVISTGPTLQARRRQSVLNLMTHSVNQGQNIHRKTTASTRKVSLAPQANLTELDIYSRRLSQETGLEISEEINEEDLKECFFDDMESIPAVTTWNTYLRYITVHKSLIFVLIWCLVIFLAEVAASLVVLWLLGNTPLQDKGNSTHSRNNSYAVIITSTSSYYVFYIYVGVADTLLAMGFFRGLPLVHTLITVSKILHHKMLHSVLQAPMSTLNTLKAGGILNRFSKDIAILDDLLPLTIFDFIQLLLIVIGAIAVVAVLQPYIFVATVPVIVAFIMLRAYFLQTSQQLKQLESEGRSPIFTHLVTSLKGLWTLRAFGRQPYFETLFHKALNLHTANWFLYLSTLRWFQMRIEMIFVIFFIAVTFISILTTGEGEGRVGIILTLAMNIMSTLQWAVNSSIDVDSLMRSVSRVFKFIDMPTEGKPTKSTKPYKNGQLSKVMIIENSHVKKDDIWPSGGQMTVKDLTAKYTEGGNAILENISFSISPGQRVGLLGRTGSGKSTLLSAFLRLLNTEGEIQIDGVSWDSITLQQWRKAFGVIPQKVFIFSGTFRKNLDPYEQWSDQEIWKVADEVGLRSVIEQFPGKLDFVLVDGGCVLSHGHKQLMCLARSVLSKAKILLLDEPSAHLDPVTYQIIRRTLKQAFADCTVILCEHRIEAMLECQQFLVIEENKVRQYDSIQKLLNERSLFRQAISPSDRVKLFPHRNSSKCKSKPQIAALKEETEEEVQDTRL

Structure (SMILES)	EC50 [1] [nM]	Emax [2] [%]	EC50 [3] [nM]	Emax [4] [%]	further results
Cc1cc(CCNC(=O)[C@@H]2CC(=O)N(C)[C@@H](CC(C)C)C(=O)N(C)C3(CC3)C(=O)N[C@H](Cc3ccccc3)COc3ccc4ccccc4c3C(=O)N2)on1 [Example 654, (3′S,7′S,13′R)-13′-benzyl-7′-isobutyl-6′,9′-dimethyl-N-(2-(3-methylisoxazol-5-yl)ethyl)-1′,5′,8′,11′-tetraoxo-2′,3′,4′,5′,6′,7′,8′,9′,11′,12′,13′,14′-dodecahydro-1′H-spiro[cyclopropane-1,10′-naphtho[1,2-p][1]oxa[4,7,10,14]tetraazacycloheptadecine]-3′-carboxamide]	290	330	–	–	–
Cc1cc(CCNC(=O)[C@@H]2CC(=O)N(C)[C@@H](CC(C)C)C(=O)N(C)C3(CC3)C(=O)N[C@H](Cc3ccccc3)COc3nc4ccccn4c3C(=O)N2)on1 [Example 448, (3′R,9′S,13′S)-3′-benzyl-9′-isobutyl-7′,10′-dimethyl-N-(2-(3-methylisoxazol-5-yl)ethyl)-5′,8′,11′,15′-tetraoxo-2′,3′,4′,5′,8′,9′,10′,11′,12′,13′,14′,15′-dodecahydro-7′H-spiro[cyclopropane-1,6′-pyrido[2′,11:2,3]imidazo[4,5-p][1]oxa[4,7,10,14]tetraazacycloheptadecine]-13′-carboxamide]	961	109	–	–	–
COc1nccc2c1C(=O)N[C@H](C(=O)NCCc1ccccc1)CC(=O)N(C)[C@@H](CC(C)C)C(=O)N1CCCC[C@@H]1C(=O)N[C@H](Cc1ccccc1)CO2 [Example 183, (7S,11S,17aR,20R)-20-benzyl-11-isobutyl-4-methoxy-10-methyl-5,9,12,18-tetraoxo-N-phenethyl-5,6,7,8,9,10,11,12,15,16,17,17a,18,19,20,21-hexadecahydro-14H-dipyrido[2,1-f:3′,4′-p][1]oxa[4,7,10,14]tetraazacycloheptadecine-7-carboxamide]	–	–	621	237	–
CC(C)C[C@H]1C(=O)N(C)C2(CC2)C(=O)N[C@H](Cc2ccccc2)COc2cnc3ccccc3c2C(=O)N[C@H](C(=O)NCCc2nc(Cc3ccccc3)no2)CC(=O)N1C [Example 763, (3'S,7'S,13′R)-13′-Benzyl-N-(2-(3-benzyl-1,2,4-oxadiazol-5-yl)ethyl)-7′-isobutyl-6′,9′-dimethyl-1′,5′,8′,11′-tetraoxo-2′,3′,4′,5′,6′,7′,8′,9′,11′,12′,13′,14′-dodecahydro-1′H-spiro[cyclopropane-1,10′-[1]oxa[4,7,10,14]tetraazacycloheptadecino[17,16-c]quinoline]-3′-carboxamide]	264	181	–	–	–
CC(C)C[C@H]1C(=O)N2CCCC[C@@H]2C(=O)N[C@H](Cc2ccccc2)COc2cnc3ccccc3c2C(=O)N[C@H](C(=O)NCCc2cccc(F)c2F)CC(=O)N1C [Example 97, (9S,13S,19aR,22R)-22-benzyl-N-(2,3-difluorophenethyl)-13-isobutyl-12-methyl-7,11,14,20-tetraoxo-7,8,9,10,11,12,13,14,17,18,19,19a,20,21,22,23-hexadecahydro-16H-pyrido[2′,1′:6,7][1]oxa[4,7,10,14]tetraazacycloheptadecino[17,16-c]quinoline-9-carboxamide]	–	–	146	285	–
Cc1cc2c3c(ccc2cn1)OC[C@@H](Cc1ccccc1)NC(=O)C1(CC1)N(C)C(=O)[C@H](CC(C)C)N(C)C(=O)C[C@@H](C(=O)NCCn1nc2ccccc2n1)NC3=O [Example 904, (3′S,7′S,13′R)-N-(2-(2H-benzo[d][1,2,3]triazol-2-yl)ethyl)-13′-benzyl-7′-isobutyl-6′,9′,20′-trimethyl-1′,5′,8′,11′-tetraoxo-2′,3′,4′,5′,6′,7′,8′,9′,11′,12′,13′,14′-dodecahydro-1′H-spiro[cyclopropane-1,10′-[1]oxa[4,7,10,14]tetraazacycloheptadecino[16,17-f]isoquinoline]-3′-carboxamide]	–	–	–	–	EC50 [5]: 722 nM; Emax [6]: 365%
CC(C)C[C@H]1C(=O)N(C)CC(=O)N[C@H](Cc2ccccc2)COc2cnc3c(F)cccc3c2C(=O)N[C@H](C(=O)NCCc2ccc3c(c2)OCO3)CC(=O)N1C [Example 349, (3S,7S,13R)-N-(2-(benzo[d][1,3]dioxol-5-yl)ethyl)-13-benzyl-18-fluoro-7-isobutyl-6,9-dimethyl-1,5,8,11-tetraoxo-1,2,3,4,5,6,7,8,9,10,11,12,13,14-tetradecahydro-[1]oxa[4,7,10,14]tetraazacycloheptadecino[17,16-c]quinoline-3-carboxamide]	–	–	597	258	–
COc1cc(CCNC(=O)[C@@H]2CC(=O)N(C)[C@@H](CC(C)C)C(=O)N3CCCC[C@@H]3C(=O)N[C@H](Cc3ccccc3)COc3cnc4ccccc4c3C(=O)N2)ccc1-n1nccn1 [Example 93, (9S,13S,19aR,22R)-22-benzyl-13-isobutyl-N-(3-methoxy-4-(2H-1,2,3-triazol-2-yl)phenethyl)-12-methyl-7,11,14,20-tetraoxo-7,8,9,10,11,12,13,14,17,18,19,19a,20,21,22,23-hexadecahydro-16H-pyrido[2′,1′:6,7][1]oxa[4,7,10,14]tetraazacycloheptadecino[17,16-c]quinoline-9-carboxamide]	–	–	777	189	–
COc1ccc(CCNC(=O)[C@@H]2CC(=O)N(C)[C@@H](CC(C)C)C(=O)N3CCCC[C@@H]3C(=O)N[C@H](Cc3ccccc3)COc3ccnc(OC)c3C(=O)N2)cc1 [Example 185, (7S,11S,17aR,20R)-20-benzyl-11-isobutyl-4-methoxy-N-(4-methoxyphenethyl)-10-methyl-5,9,12,18-tetraoxo-5,6,7,8,9,10,11,12,15,16,17,17a,18,19,20,21-hexadecahydro-14H-dipyrido[2,1-f:3′,4′-p][1]oxa[4,7,10,14]tetraazacycloheptadecine-7-carboxamide]	–	–	379	275	–
COc1cccc(CCNC(=O)[C@@H]2CC(=O)N(C)[C@@H](CC(C)C)C(=O)N(C)CC(=O)N[C@H](Cc3ccccc3)COc3ccsc3C(=O)N2)c1 [Example 240, (6R,12S,16S)-6-benzyl-12-isobutyl-N-(3-methoxyphenethyl)-10,13-dimethyl-8,11,14,18-tetraoxo-5,6,7,8,9,10,11,12,13,14,15,16,17,18-tetradecahydrothieno[2,3-p][1]oxa[4,7,10,14]tetraazacycloheptadecine-16-carboxamide]	–	–	1260	77	–
CC(C)C[C@H]1C(=O)N(C)C2(CC2)C(=O)N[C@H](Cc2ccccc2)COc2cnc3ccc(F)cc3c2C(=O)N[C@H](C(=O)NCCc2ccc(-c3cnccn3)cc2)CC(=O)N1C [Example 133, (3′S,7′S,13′R)-13′-benzyl-20′-fluoro-7′-isobutyl-6′,9′-dimethyl-1′,5′,8′,11′-tetraoxo-N-(4-(pyrazin-2-yl)phenethyl)-2′,3′,4′,5′,6′,7′,8′,9′,11′,12′,13′,14′-dodecahydro-1′H-spiro[cyclopropane-1,10′-[1]oxa[4,7,10,14]tetraazacycloheptadecino[17,16-c]quinoline]-3′-carboxamide]	–	–	149	213	–
COc1nc(C)cc2c1C(=O)N[C@H](C(=O)NCCn1nnc(C3CC3)n1)CC(=O)N(C)[C@@H](CC(C)C)C(=O)N(C)[C@H](Cc1nc(C(F)(F)F)no1)C(=O)N[C@H](Cc1ccccc1)CO2 [Example 902, (3R,6R,9S,13S)-3-benzyl-N-(2-(5-cyclopropyl-2H-tetrazol-2-yl)ethyl)-9-isobutyl-16-methoxy-7,10,18-trimethyl-5,8,11,15-tetraoxo-6-((3-(trifluoromethyl)-1,2,4-oxadiazol-5-yl)methyl)-2,3,4,5,6,7,8,9,10,11,12,13,14,15-tetradecahydropyrido[3,4-p][1]oxa[4,7,10,14]tetraazacycloheptadecine-13-carboxamide]	–	–	–	–	EC50 [5]: 55 nM; Emax [6]: 453%
Cc1cc(CCNC(=O)[C@@H]2CC(=O)N(C)[C@@H](CC(C)C)C(=O)N3CCCC[C@@H]3C(=O)N[C@H](Cc3ccccc3)COc3ccc4ccccc4c3C(=O)N2)on1 [Example 607, (4aR,7R,18S,22S)-7-benzyl-22-isobutyl-21-methyl-N-(2-(3-methylisoxazol-5-yl)ethyl)-5,16,20,23-tetraoxo-2,3,4,4a,5,6,7,8,16,17,18,19,20,21,22,23-hexadecahydro-1H-naphtho[1,2-p]pyrido[2,1-f][1]oxa[4,7,10,14]tetraazacycloheptadecine-18-carboxamide]	121	283	–	–	–
CC(C)C[C@H]1C(=O)N2CCCC[C@@H]2C(=O)N[C@H](Cc2ccccc2)COc2ccc3ncn(C)c3c2C(=O)N[C@H](C(=O)NCCc2cccc(OC(F)F)c2)CC(=O)N1C (racemic) [Example 26, (8RS,12S,18aR,21R)-21-benzyl-N-(3-(difluoromethoxy)phenethyl)-12-isobutyl-5,11-dimethyl-6,10,13,19-tetraoxo-6,7,8,9,10,11,12,13,16,17,18,18a,19,20,21,22-hexadecahydro-5H,15H-imidazo[4′,5′:5,6]benzo[1,2-p]pyrido[2,1-f][1]oxa[4,7,10,14]tetraazacycloheptadecine-8-carboxamide]	–	–	299	111	–
COc1cc(CCNC(=O)[C@@H]2CC(=O)N(C)[C@@H](CC(C)C)C(=O)N(C)[C@H](C)C(=O)N[C@H](Cc3ccccc3)COc3cc(C)nc(OC)c3C(=O)N2)on1 [Example 772, (3R,6R,9S,13S)-3-benzyl-9-isobutyl-16-methoxy-N-(2-(3-methoxyisoxazol-5-yl)ethyl)-6,7,10,18-tetramethyl-5,8,11,15-tetraoxo-2,3,4,5,6,7,8,9,10,11,12,13,14,15-tetradecahydropyrido[3,4-p][1]oxa[4,7,10,14]tetraazacycloheptadecine-13-carboxamide]	514	343	–	–	–
